Results: US20110071108A1, “Beta-Cyclodextrin Derivatives as Antibacterial Agents” (Pinnacle Pharmaceuticals, Inc., priority 2005, published 2011)
Where two headings read alike, the source gives them in different places.

Tests used:
Salmonella choleraesuis = experiment: Bacterial panel testing, MIC by broth microdilution; format: cell-based; conditions: 20-24 hours growth
In short: (§1)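 Read-out: clear (no-growth) wells scored after 20-24 h growth to define compound potency. Inoculum was McFarland-matched bacteria from 2-4 h cultures at 37° C in strain-appropriate Mueller-Hinton or Brain Heart infusion media. Compound (10 μg/ml DMSO stock) was serially diluted twofold across plate columns.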

Enterococcus faecium = experiment: as above; format: cell-based; conditions: 20-24 hours growth
In short: as §1

Staphylococcus aureus = experiment: as above; format: cell-based; conditions: 20-24 hours growth
In short: as §1

Lungs cancer cells A549 [1] = experiment: Mammalian cytotoxicity
Pseudomonas aeruginosa = experiment: Bacterial panel testing, MIC by broth microdilution; format: cell-based; conditions: 20-24 hours growth
In short: as §1

Eschericia coli = experiment: as above; format: cell-based; conditions: 20-24 hours growth
In short: as §1

Bacillus atrophaeus = experiment: as above; format: cell-based; conditions: 20-24 hours growth
In short: as §1

Lungs cancer cells A549 [2] = tested on: Lungs cancer cells A549

NC[C@H]1O[C@@H]2O[C@H]3[C@H](O)[C@@H](O)[C@@H](O[C@H]4[C@H](O)[C@@H](O)[C@@H](O[C@H]5[C@H](O)[C@@H](O)[C@@H](O[C@H]6[C@H](O)[C@@H](O)[C@@H](O[C@H]7[C@H](O)[C@@H](O)[C@@H](O[C@H]8[C@H](O)[C@@H](O)[C@@H](O[C@H]1[C@H](O)[C@H]2O)O[C@@H]8CN)O[C@@H]7CN)O[C@@H]6CN)O[C@@H]5CN)O[C@@H]4CN)O[C@@H]3CN
MIC SC (Salmonella choleraesuis): >200 µg/mL
MIC EF (Enterococcus faecium): >200 µg/mL
MIC SA (Staphylococcus aureus): >200 µg/mL
Mammalian Cytotoxicity IC50 (Lungs cancer cells A549 [1]): 720 µg/mL

NCC(=O)NC[C@H]1O[C@@H]2O[C@H]3[C@H](O)[C@@H](O)[C@@H](O[C@H]4[C@H](O)[C@@H](O)[C@@H](O[C@H]5[C@H](O)[C@@H](O)[C@@H](O[C@H]6[C@H](O)[C@@H](O)[C@@H](O[C@H]7[C@H](O)[C@@H](O)[C@@H](O[C@H]8[C@H](O)[C@@H](O)[C@@H](O[C@H]1[C@H](O)[C@H]2O)O[C@@H]8CNC(=O)CN)O[C@@H]7CNC(=O)CN)O[C@@H]6CNC(=O)CN)O[C@@H]5CNC(=O)CN)O[C@@H]4CNC(=O)CN)O[C@@H]3CNC(=O)CN
MIC SC (Salmonella choleraesuis): >200 µg/mL
MIC PA (Pseudomonas aeruginosa): >200 µg/mL
MIC EF (Enterococcus faecium): >200 µg/mL
MIC SA (Staphylococcus aureus): >200 µg/mL
MIC EC (Eschericia coli): >200 µg/mL
Mammalian Cytotoxicity IC50 (Lungs cancer cells A549 [1]): 690 µg/mL

CC(C)C[C@H](N)C(=O)NC[C@H]1O[C@@H]2O[C@H]3[C@H](O)[C@@H](O)[C@@H](O[C@H]4[C@H](O)[C@@H](O)[C@@H](O[C@H]5[C@H](O)[C@@H](O)[C@@H](O[C@H]6[C@H](O)[C@@H](O)[C@@H](O[C@H]7[C@H](O)[C@@H](O)[C@@H](O[C@H]8[C@H](O)[C@@H](O)[C@@H](O[C@H]1[C@H](O)[C@H]2O)O[C@@H]8CNC(=O)[C@@H](N)CC(C)C)O[C@@H]7CNC(=O)[C@@H](N)CC(C)C)O[C@@H]6CNC(=O)[C@@H](N)CC(C)C)O[C@@H]5CNC(=O)[C@@H](N)CC(C)C)O[C@@H]4CNC(=O)[C@@H](N)CC(C)C)O[C@@H]3CNC(=O)[C@@H](N)CC(C)C
MIC SC (Salmonella choleraesuis): >200 µg/mL
MIC PA (Pseudomonas aeruginosa): >200 µg/mL
MIC EF (Enterococcus faecium): >200 µg/mL
MIC SA (Staphylococcus aureus): >200 µg/mL
MIC EC (Eschericia coli): >200 µg/mL
Mammalian Cytotoxicity IC50 (Lungs cancer cells A549 [1]): 215 µg/mL

N[C@@H](Cc1ccccc1)C(=O)NC[C@H]1O[C@@H]2O[C@H]3[C@H](O)[C@@H](O)[C@@H](O[C@H]4[C@H](O)[C@@H](O)[C@@H](O[C@H]5[C@H](O)[C@@H](O)[C@@H](O[C@H]6[C@H](O)[C@@H](O)[C@@H](O[C@H]7[C@H](O)[C@@H](O)[C@@H](O[C@H]8[C@H](O)[C@@H](O)[C@@H](O[C@H]1[C@H](O)[C@H]2O)O[C@@H]8CNC(=O)[C@@H](N)Cc1ccccc1)O[C@@H]7CNC(=O)[C@@H](N)Cc1ccccc1)O[C@@H]6CNC(=O)[C@@H](N)Cc1ccccc1)O[C@@H]5CNC(=O)[C@@H](N)Cc1ccccc1)O[C@@H]4CNC(=O)[C@@H](N)Cc1ccccc1)O[C@@H]3CNC(=O)[C@@H](N)Cc1ccccc1
MIC SC (Salmonella choleraesuis): >200 µg/mL
MIC PA (Pseudomonas aeruginosa): >200 µg/mL
MIC EF (Enterococcus faecium): >200 µg/mL
MIC SA (Staphylococcus aureus): >200 µg/mL
MIC EC (Eschericia coli): >200 µg/mL
Mammalian Cytotoxicity IC50 (Lungs cancer cells A549 [1]): >2000 µg/mL

N=C(N)NCCSC[C@H]1O[C@@H]2O[C@H]3[C@H](O)[C@@H](O)[C@@H](O[C@H]4[C@H](O)[C@@H](O)[C@@H](O[C@H]5[C@H](O)[C@@H](O)[C@@H](O[C@H]6[C@H](O)[C@@H](O)[C@@H](O[C@H]7[C@H](O)[C@@H](O)[C@@H](O[C@H]8[C@H](O)[C@@H](O)[C@@H](O[C@H]1[C@H](O)[C@H]2O)O[C@@H]8CSCCNC(=N)N)O[C@@H]7CSCCNC(=N)N)O[C@@H]6CSCCNC(=N)N)O[C@@H]5CSCCNC(=N)N)O[C@@H]4CSCCNC(=N)N)O[C@@H]3CSCCNC(=N)N
MIC SC (Salmonella choleraesuis): >200 µg/mL
MIC PA (Pseudomonas aeruginosa): >200 µg/mL
MIC EF (Enterococcus faecium): >200 µg/mL
MIC SA (Staphylococcus aureus): >200 µg/mL
MIC EC (Eschericia coli): >200 µg/mL
Mammalian Cytotoxicity IC50 (Lungs cancer cells A549 [1]): 510 µg/mL

NCCCCC(=O)NC[C@H]1O[C@@H]2O[C@H]3[C@H](O)[C@@H](O)[C@@H](O[C@H]4[C@H](O)[C@@H](O)[C@@H](O[C@H]5[C@H](O)[C@@H](O)[C@@H](O[C@H]6[C@H](O)[C@@H](O)[C@@H](O[C@H]7[C@H](O)[C@@H](O)[C@@H](O[C@H]8[C@H](O)[C@@H](O)[C@@H](O[C@H]1[C@H](O)[C@H]2O)O[C@@H]8CNC(=O)CCCCN)O[C@@H]7CNC(=O)CCCCN)O[C@@H]6CNC(=O)CCCCN)O[C@@H]5CNC(=O)CCCCN)O[C@@H]4CNC(=O)CCCCN)O[C@@H]3CNC(=O)CCCCN
MIC SC (Salmonella choleraesuis): >200 µg/mL
MIC PA (Pseudomonas aeruginosa): >200 µg/mL
MIC EF (Enterococcus faecium): >200 µg/mL
MIC SA (Staphylococcus aureus): >200 µg/mL
MIC EC (Eschericia coli): >200 µg/mL
Mammalian Cytotoxicity IC50 (Lungs cancer cells A549 [1]): 755 µg/mL

CC(C)(C)OC(=O)N[C@@H](Cc1ccccc1)C(=O)NC[C@H]1O[C@@H]2O[C@H]3[C@H](O)[C@@H](O)[C@@H](O[C@H]4[C@H](O)[C@@H](O)[C@@H](O[C@H]5[C@H](O)[C@@H](O)[C@@H](O[C@H]6[C@H](O)[C@@H](O)[C@@H](O[C@H]7[C@H](O)[C@@H](O)[C@@H](O[C@H]8[C@H](O)[C@@H](O)[C@@H](O[C@H]1[C@H](O)[C@H]2O)O[C@@H]8CNC(=O)[C@H](Cc1ccccc1)NC(=O)OC(C)(C)C)O[C@@H]7CNC(=O)[C@H](Cc1ccccc1)NC(=O)OC(C)(C)C)O[C@@H]6CNC(=O)[C@H](Cc1ccccc1)NC(=O)OC(C)(C)C)O[C@@H]5CNC(=O)[C@H](Cc1ccccc1)NC(=O)OC(C)(C)C)O[C@@H]4CNC(=O)[C@H](Cc1ccccc1)NC(=O)OC(C)(C)C)O[C@@H]3CNC(=O)[C@H](Cc1ccccc1)NC(=O)OC(C)(C)C
MIC SC (Salmonella choleraesuis): >200 µg/mL
MIC PA (Pseudomonas aeruginosa): >200 µg/mL
MIC EF (Enterococcus faecium): >200 µg/mL
MIC SA (Staphylococcus aureus): >200 µg/mL
MIC EC (Eschericia coli): >200 µg/mL
MIC BA (Bacillus atrophaeus): >200 µg/mL
Mammalian Cytotoxicity IC50 (Lungs cancer cells A549 [1]): 193 µg/mL

CC(C)C[C@H](NC(=O)OC(C)(C)C)C(=O)NC[C@H]1O[C@@H]2O[C@H]3[C@H](O)[C@@H](O)[C@@H](O[C@H]4[C@H](O)[C@@H](O)[C@@H](O[C@H]5[C@H](O)[C@@H](O)[C@@H](O[C@H]6[C@H](O)[C@@H](O)[C@@H](O[C@H]7[C@H](O)[C@@H](O)[C@@H](O[C@H]8[C@H](O)[C@@H](O)[C@@H](O[C@H]1[C@H](O)[C@H]2O)O[C@@H]8CNC(=O)[C@H](CC(C)C)NC(=O)OC(C)(C)C)O[C@@H]7CNC(=O)[C@H](CC(C)C)NC(=O)OC(C)(C)C)O[C@@H]6CNC(=O)[C@H](CC(C)C)NC(=O)OC(C)(C)C)O[C@@H]5CNC(=O)[C@H](CC(C)C)NC(=O)OC(C)(C)C)O[C@@H]4CNC(=O)[C@H](CC(C)C)NC(=O)OC(C)(C)C)O[C@@H]3CNC(=O)[C@H](CC(C)C)NC(=O)OC(C)(C)C
MIC SC (Salmonella choleraesuis): >200 µg/mL
MIC PA (Pseudomonas aeruginosa): >200 µg/mL
MIC EF (Enterococcus faecium): >200 µg/mL
MIC SA (Staphylococcus aureus): >200 µg/mL
MIC EC (Eschericia coli): >200 µg/mL
MIC BA (Bacillus atrophaeus): >200 µg/mL
Mammalian Cytotoxicity IC50 (Lungs cancer cells A549 [1]): 144 µg/mL

[N-]=[N+]=NC[C@H]1O[C@@H]2O[C@H]3[C@H](O)[C@@H](O)[C@@H](O[C@H]4[C@H](O)[C@@H](O)[C@@H](O[C@H]5[C@H](O)[C@@H](O)[C@@H](O[C@H]6[C@H](O)[C@@H](O)[C@@H](O[C@H]7[C@H](O)[C@@H](O)[C@@H](O[C@H]8[C@H](O)[C@@H](O)[C@@H](O[C@H]1[C@H](O)[C@H]2O)O[C@@H]8CN=[N+]=[N-])O[C@@H]7CN=[N+]=[N-])O[C@@H]6CN=[N+]=[N-])O[C@@H]5CN=[N+]=[N-])O[C@@H]4CN=[N+]=[N-])O[C@@H]3CN=[N+]=[N-]
MIC SC (Salmonella choleraesuis): >200 µg/mL
MIC PA (Pseudomonas aeruginosa): >200 µg/mL
MIC EF (Enterococcus faecium): >200 µg/mL
MIC EC (Eschericia coli): >200 µg/mL
Mammalian Cytotoxicity IC50 (Lungs cancer cells A549 [1]): 2116 µg/mL

Cl.Cl.Cl.Cl.Cl.Cl.Cl.NCCCCCCSC[C@H]1O[C@@H]2O[C@H]3[C@H](O)[C@@H](O)[C@@H](O[C@H]4[C@H](O)[C@@H](O)[C@@H](O[C@H]5[C@H](O)[C@@H](O)[C@@H](O[C@H]6[C@H](O)[C@@H](O)[C@@H](O[C@H]7[C@H](O)[C@@H](O)[C@@H](O[C@H]8[C@H](O)[C@@H](O)[C@@H](O[C@H]1[C@H](O)[C@H]2O)O[C@@H]8CSCCCCCCN)O[C@@H]7CSCCCCCCN)O[C@@H]6CSCCCCCCN)O[C@@H]5CSCCCCCCN)O[C@@H]4CSCCCCCCN)O[C@@H]3CSCCCCCCN
MIC PA (Pseudomonas aeruginosa): >200 µg/mL
MIC EF (Enterococcus faecium): >200 µg/mL
MIC SA (Staphylococcus aureus): >200 µg/mL
Mammalian Cytotoxicity IC50 (Lungs cancer cells A549 [2]): 321 µg/mL

Cl.Cl.Cl.Cl.Cl.Cl.NCC1OC2OC3C(CN)OC(OC4C(CN)OC(OC5C(CN)OC(OC6C(CN)OC(OC7C(CN)OC(OC1C(O)C2O)C(O)C7O)C(O)C6O)C(O)C5O)C(O)C4O)C(O)C3O (stereo not drawn)
MIC SC (Salmonella choleraesuis): >200 µg/mL
MIC EF (Enterococcus faecium): >200 µg/mL
MIC SA (Staphylococcus aureus): >200 µg/mL
MIC EC (Eschericia coli): >200 µg/mL
MIC BA (Bacillus atrophaeus): >200 µg/mL
Mammalian Cytotoxicity IC50 (Lungs cancer cells A549 [1]): 109.3 µg/mL

Cl.Cl.Cl.Cl.Cl.Cl.Cl.NCc1ccc(CSCC2OC3OC4C(CSCc5ccc(CN)cc5)OC(OC5C(CSCc6ccc(CN)cc6)OC(OC6C(CSCc7ccc(CN)cc7)OC(OC7C(CSCc8ccc(CN)cc8)OC(OC8C(CSCc9ccc(CN)cc9)OC(OC9C(CSCc%10ccc(CN)cc%10)OC(OC2C(O)C3O)C(O)C9O)C(O)C8O)C(O)C7O)C(O)C6O)C(O)C5O)C(O)C4O)cc1 (stereo not drawn)
MIC EF (Enterococcus faecium): >200 µg/mL
MIC SA (Staphylococcus aureus): >200 µg/mL
Mammalian Cytotoxicity IC50 (Lungs cancer cells A549 [1]): 56.2 µg/mL

Cl.Cl.Cl.Cl.Cl.Cl.Cl.NCc1ccccc1CSCC1OC2OC3C(CSCc4ccccc4CN)OC(OC4C(CSCc5ccccc5CN)OC(OC5C(CSCc6ccccc6CN)OC(OC6C(CSCc7ccccc7CN)OC(OC7C(CSCc8ccccc8CN)OC(OC8C(CSCc9ccccc9CN)OC(OC1C(O)C2O)C(O)C8O)C(O)C7O)C(O)C6O)C(O)C5O)C(O)C4O)C(O)C3O (stereo not drawn)
MIC PA (Pseudomonas aeruginosa): >100 µg/mL
MIC EF (Enterococcus faecium): >100 µg/mL
Mammalian Cytotoxicity IC50 (Lungs cancer cells A549 [2]): 193.5 µg/mL
